Results published in publication PMC8365602 (Journal of Medicinal Chemistry, 2021).

What was measured:
[1] = system: mice sensitized to ovalbumin; experiment: Experimental model of murine asthma (ovalbumin sensitization); assay type: in vivo; settings: 10 mg/kg p.o.
Procedure: (§1) Male CD-1 mice (33–39 g, 6–8 weeks, Charles River Laboratories; Calco, Italy) and female BALB/c mice (20 g, 8 weeks, Charles River Laboratories) were fed with standard rodent chow and water and acclimated for 4 days at a 12 h light and 12 h dark schedule in a constant air-conditioned environment (21 ± 2 °C). Mice were randomly assigned to groups, and experiments were carried out during the light phase.
BALB/c mice received 27a (p.o.) or vehicle (0.5% carboxymethylcellulose in 10% Tween 20; 0.5 mL) on days 0 and 7, 1 h (p.o) before being sensitized to ovalbumin (100 μg adsorbed to 3.3 mg of aluminum hydroxide gel, s.c., Sigma-Aldrich). Mice were sacrificed on days 1, 3, 8, 10, or 21 to collect lung and plasma. Bronchi were cut in rings of 1 to 2 mm length, placed in organ baths, and fixed to an isometric force transducer 7006 connected to a Powerlab 800 (AD Instruments, Ugo Basile, Comerio, Italy). After stretching the rings to a resting tension of 0.5g and equilibration for at least 30 min, the rings were challenged with carbachol (1 μM) until a reproducible response was observed. To assess bronchial reactivity, the cumulative response to carbachol (0.001 to 3.16 μM) was measured. Bronchial relaxation was determined from the cumulative response of precontracted bronchial tissues to salbutamol. Compound 27a, LTB4, and LTB4 isomers were analyzed in plasma and lung homogenates by UPLC-MS/MS. Lung tissue (100 mg/mL) was homogenized in PBS pH 7.4 at 4 °C for 1–2 min using an Omni tissue homogenizer (Omni, Kennesaw, GA).

[2] = target: single mutant Arg101Asp 5-LOX (R101D) (Homo sapiens, UniProt P09917, R102D); experiment: Cell-free activity of 5-LOX single mutant (R101D)
Chain of single mutant Arg101Asp 5-LOX (R101D) (P09917 whole entry R102D): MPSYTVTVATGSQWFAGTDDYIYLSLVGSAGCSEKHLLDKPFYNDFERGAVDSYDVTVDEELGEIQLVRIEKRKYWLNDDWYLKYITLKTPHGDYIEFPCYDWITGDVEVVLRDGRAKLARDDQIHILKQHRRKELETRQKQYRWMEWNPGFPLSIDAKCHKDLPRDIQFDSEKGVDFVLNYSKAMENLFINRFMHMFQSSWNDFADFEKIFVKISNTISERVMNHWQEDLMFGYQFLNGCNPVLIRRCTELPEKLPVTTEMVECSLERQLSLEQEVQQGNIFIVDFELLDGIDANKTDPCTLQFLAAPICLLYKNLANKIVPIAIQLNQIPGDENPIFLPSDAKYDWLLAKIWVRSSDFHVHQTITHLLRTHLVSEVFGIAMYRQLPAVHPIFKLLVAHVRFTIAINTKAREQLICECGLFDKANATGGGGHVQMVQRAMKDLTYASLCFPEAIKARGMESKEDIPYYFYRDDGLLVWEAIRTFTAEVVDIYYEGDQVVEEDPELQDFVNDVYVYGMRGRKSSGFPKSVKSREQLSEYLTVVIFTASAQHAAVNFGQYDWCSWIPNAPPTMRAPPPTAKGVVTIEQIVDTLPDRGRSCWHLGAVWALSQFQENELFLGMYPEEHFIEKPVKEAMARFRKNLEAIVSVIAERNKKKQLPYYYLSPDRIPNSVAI
Procedure: (§2) Human recombinant 5-LOX was expressed in E. coli Bl21 (DE3) cells that were transformed with pT3–5LOX (wt 5-LOX), 5-LOX_3W (triple mutation of Trp102Ala/Trp13Ala/Trp75Ala), or 5-LOX_R (single mutant of the Arg101Asp plasmid) and purified on an ATP-agarose column (Econo-Pac, Bio-Rad, Hercules, CA) by affinity chromatography.[6],[75]
(§3) Purified 5-LOX (0.5 μg in PBS pH 7.4 containing 1 mM EDTA and 1 mM ATP) was preincubated with the vehicle (DMSO) or test compounds for 10 min and prewarmed at 37 °C.

[3] = system: zymosan-induced murine peritonitis; experiment: Zymosan-induced peritonitis in mice; assay type: in vivo
Procedure: as §1
Zymosan (2 mg/mL in saline, i.p., 0.5 mL, Sigma-Aldrich) was injected at 30 min (i.p.) or 60 min (p.o.) post compound administration. Mice were sacrificed by inhalation of CO2 after another 30 min to determine LTC4 levels, lipid mediator profiles, metabolites, and vascular permeability and after 4 h to analyze LTB4 levels and cell infiltration.[72] Plasma and peritoneal exudates were collected, and cells were counted in exudates after trypan blue staining. Vascular permeability was measured by injection of Evans blue dye (40 mg/kg in saline, 0.3 mL, Sigma-Aldrich) into the tail vain directly before peritonitis induction.[72] The exudate was centrifuged (3000g, 5 min), and the absorbance was measured at 610 nm (DU730 spectrophotometer, Beckman Coulter, Krefeld, Germany). Levels of LTB4 and cysteinyl-LTs (dominated by LTC4) were quantified in the exudate by ELISA (Enzo Life Sciences, Lörrach, Germany) according to the manufacturer’s instructions. Compound 27a, its metabolites, and lipid mediators were extracted and analyzed by UPLC-MS/MS.

5-LOX [4] = target: T1, 5-LOX (Homo sapiens, UniProt P09917); experiment: Cell-free 5-LOX activity (isolated human recombinant enzyme)
T1 sequence (P09917 1-674): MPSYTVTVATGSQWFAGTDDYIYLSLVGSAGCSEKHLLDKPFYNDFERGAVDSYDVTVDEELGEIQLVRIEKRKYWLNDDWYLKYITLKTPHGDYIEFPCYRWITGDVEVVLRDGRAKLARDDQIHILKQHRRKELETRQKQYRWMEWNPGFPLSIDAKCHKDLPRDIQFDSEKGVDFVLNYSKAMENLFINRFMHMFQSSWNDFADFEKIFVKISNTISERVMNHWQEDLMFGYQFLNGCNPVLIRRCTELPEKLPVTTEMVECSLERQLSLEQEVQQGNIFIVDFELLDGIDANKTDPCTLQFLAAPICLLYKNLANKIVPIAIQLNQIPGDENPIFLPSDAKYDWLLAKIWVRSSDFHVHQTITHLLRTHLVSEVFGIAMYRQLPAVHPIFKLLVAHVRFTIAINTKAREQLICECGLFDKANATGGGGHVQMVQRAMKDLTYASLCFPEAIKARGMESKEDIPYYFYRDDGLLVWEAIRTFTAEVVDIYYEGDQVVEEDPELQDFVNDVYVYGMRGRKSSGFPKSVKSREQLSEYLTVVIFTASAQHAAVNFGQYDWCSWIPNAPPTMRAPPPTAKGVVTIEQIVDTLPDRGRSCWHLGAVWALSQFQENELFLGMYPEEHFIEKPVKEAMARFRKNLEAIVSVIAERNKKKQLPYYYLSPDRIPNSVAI
Procedure: as §2, §3

12-LOX = target: T2, 12-LOX (Homo sapiens, UniProt P18054); experiment: 12-LOX product formation in activated PMNL; assay type: cell-based
T2 construct: endogenous in cells; host or cells: primary human PMNL
T2 sequence (P18054 whole entry): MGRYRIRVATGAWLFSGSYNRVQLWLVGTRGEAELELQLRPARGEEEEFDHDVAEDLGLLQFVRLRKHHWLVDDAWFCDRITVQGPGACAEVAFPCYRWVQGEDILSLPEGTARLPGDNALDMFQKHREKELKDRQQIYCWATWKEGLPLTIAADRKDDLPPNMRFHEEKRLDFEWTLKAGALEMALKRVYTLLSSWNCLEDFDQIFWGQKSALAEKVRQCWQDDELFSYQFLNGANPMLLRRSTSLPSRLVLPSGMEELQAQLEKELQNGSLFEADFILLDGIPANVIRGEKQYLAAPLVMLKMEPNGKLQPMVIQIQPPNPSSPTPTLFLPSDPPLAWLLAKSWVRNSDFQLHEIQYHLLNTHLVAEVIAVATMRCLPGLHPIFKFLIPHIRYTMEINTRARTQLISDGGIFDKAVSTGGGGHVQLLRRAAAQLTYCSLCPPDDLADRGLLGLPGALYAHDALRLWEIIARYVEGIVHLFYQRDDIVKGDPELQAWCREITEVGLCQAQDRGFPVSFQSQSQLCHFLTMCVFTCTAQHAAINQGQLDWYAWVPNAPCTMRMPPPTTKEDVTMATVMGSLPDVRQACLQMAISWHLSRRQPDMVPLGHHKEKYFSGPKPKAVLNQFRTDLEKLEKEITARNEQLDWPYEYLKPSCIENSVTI
Procedure: (§4) Freshly isolated PMNL (5 × 10^6) suspended in PBS pH 7.4 with 1 mg/mL glucose or freshly withdrawn human whole blood were preincubated with the test compounds for 10 min (or as indicated) at 37 °C. […] The reaction was stopped with an equal volume of methanol.

[5] = system: E. coli-stimulated macrophages; experiment: Arachidonic acid release from E. coli-stimulated macrophages; assay type: cell-based, human; settings: ≤1 μM
Procedure: Macrophages were stimulated in PBS pH 7.4 (containing 1 mM CaCl2) with E. coli (serotype O6:K2:H1) at a ratio of 1:50 (macrophages: E. coli) for 180 min at 37 °C and 5% CO2.[24]
Fatty acids and lipid mediators were extracted from macrophage supernatants or murine peritoneal exudates (1 mL) after addition of two aliquots of ice-cold methanol.[23]d8-5S-HETE, d4-LTB4, d5-lipoxin A4, d5-resolvin D2, d4-PGE2 (200 nM, each, Cayman Chemicals), and d8-arachidonic acid (10 μM, Cayman Chemicals) were added as internal standards. After protein precipitation at −20 °C for ≥1 h, supernatants (1200g, 10 min, 4 °C) were acidified (pH 3.5) and loaded onto solid-phase cartridges (Sep-Pak Vac 6cc 500 mg/6 mL C18; Waters), which had been equilibrated with methanol and H2O. The columns were extensively washed with H2O and hexane before lipid mediators were eluted with methyl formate, evaporated to dryness, dissolved in methanol/H2O (50:50), and analyzed by UPLC-MS/MS.[23]
Absolute quantification was based on 6 internal and 45 external standards.[23]

5-LOX [6] = target: T1, 5-LOX; experiment: 5-LOX product formation in activated PMNL;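 also: freshly isolated human PMNL in PBS pH 7.4 plus glucose, preincubated 10 min at 37 °C with compound, 5-LOX products (all-trans LTB4 isomers, 5-HETE) quantified by RP-HPLC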
Procedure: These volunteers regularly donated blood (every 8–12 weeks) and were physically inspected by a clinician.
Erythrocytes were removed by dextran sedimentation and hypotonic lysis. PMNL were obtained from the cell pellet and platelets from the supernatant.
as §4

[7] = 10 mg/kg i.p., 30 min post zymosan
[8] = 10 mg/kg i.p., 4 h post zymosan

Question: For `C/C(=C\CC/C(C)=C/CC[C@]1(C)CCc2c(C)c(O)c(C)c(C)c2O1)CCC=C(CO)CO` [Compound 27a, α-amplexichromanol], which “Lung levels of LTB4 and its isomers” value ([1]; day 3) is on record?
Answer: The value was “lowered lung levels of LTB4 and its isomers”.

Question: What about the “Adrenergic bronchial relaxation induced by salbutamol” value ([1]; day 21) of the same compound?
Answer: The value was “fully restored the adrenergic bronchial relaxation induced by salbutamol”.

Question: And the “Ovalbumin-induced bronchial hyperreactivity to carbachol” value ([1]; day 21)?
Answer: Its value is “blocked ovalbumin-induced bronchial hyperreactivity to carbachol”.

Question: And the “Effect of Arg101Asp replacement on 5-LOX inhibition” value [2]?
Answer: Its value is “failed to affect 5-LOX inhibition”.

Question: And the “Cysteinyl-LTs in the exudate” value ([3]; 3 mg/kg p.o., 30 min post zymosan)?
Answer: The value was “decreased to a basal level”.

Question: What about the “LTC4 levels in the exudate” value [3, 7] of the same compound?
Answer: The value was “strongly decreased LTC4 levels in the exudate”.

Question: And the Vascular permeability [3, 7]?
Answer: Its Vascular permeability is “reduced vascular permeability”.

Question: What about the “Influx of cells into the peritoneal cavity” value [3, 8] of the same compound?
Answer: Its value is “accordingly reduced”.

Question: What about the “LTB4 levels in the exudate” value [3, 8] of the same compound?
Answer: The value was “substantially lowered LTB4 levels”.

Question: And the “Resolvin E3 levels in the exudate” value ([3]; 10 mg/kg p.o., 30 min post zymosan injection, individual mice)?
Answer: The value was “moderately increased”.

Question: What about the “Effect of Triton X-100 on 5-LOX inhibition” value (5-LOX [4]; Triton X-100 (0.01%)) of the same compound?
Answer: The value was “did not substantially impair 5-LOX inhibition”.

Question: And the “Dependence of 5-LOX inhibition on substrate (arachidonic acid) concentration” value (5-LOX [4]; human recombinant 5-LOX)?
Answer: Its value is “independent of the substrate concentration”.

Question: And the “Reversibility of 5-LOX inhibition” value (5-LOX [4]; preincubation 15 min, 10-fold dilution)?
Answer: Its value is “reversible”.

Question: And the IC50 (5-LOX [4]; read-out: 5-LOX enzyme IC50, isolated human 5-LOX, cell-free, mean ± SEM)?
Answer: Its IC50 is 110 ± 30 nM.

Question: What about the remaining activity at 1 µM (5-LOX [4]; read-out: 5-LOX enzyme residual activity at 1 μM) of the same compound?
Answer: Its remaining activity at 1 µM is 0.1%.

Question: What about the 12-LOX inhibition (12-LOX) of the same compound?
Answer: The 12-LOX inhibition was “not substantially inhibited”.

Question: And the “Availability of free arachidonic acid” value [5]?
Answer: Its value is “neither reduced the availability of free arachidonic acid”.

Question: And the remaining activity at 3 µM (5-LOX [6]; PMNL, read-out: 5-LOX PMNL residual activity at 3 μM)?
Answer: The remaining activity at 3 µM was 0.5 ± 0.1%.

Question: And the IC50 (5-LOX [6]; read-out: 5-LOX PMNL IC50, 5-LOX product formation in activated PMNL, mean ± SEM)?
Answer: The IC50 was 40 ± 10 nM.

Question: And the IC50 (5-LOX [6]; read-out: IC50, 5-LOX product formation in PMNL, A23187)?
Answer: The IC50 was 50 nM.
